In publication PMC4848495, “Identification of a Potent and Broad-Spectrum Hepatitis C Virus Fusion Inhibitory Peptide from the E2 Stem Domain” (Scientific Reports, 2016):
Residues, ends and D or L forms follow the SMILES beside them.

Columns and labels:
Huh7.5.1 cells = assay: Cytotoxicity assay (MTT); assay type: cell-based, human
Description: Huh7.5.1 cells were treated with E27 for the indicated concentration and period of time. After removal of E27, cells were incubated for an additional 48 h in 24-well plates. Cytotoxicity was determined using the MTT Cell Viability Assay Kit from R&D Systems (Minneapolis, MN, USA).

E1E2 heterodimer = E1E2 heterodimer analysis by native-PAGE / Western blotting; assay type: cell-based, Hepatitis C virus; conditions: E27 expressed from plasmid co-transfected with E1E2 in Huh7.5.1 cells, 24 h
Description: (§1) Figure 5 Effect of E27 on E1E2 heterodimerization. (a) Analysis of the E1E2 heterodimer by native-PAGE. A plasmid expressing the E27 peptide or a scramble control peptide was co-transfected into Huh7.5.1 cells with a plasmid encoding E1E2. The single E1 or E2 plasmid was used as the control. At 24 h post-transfection, cells were lysed for Western blotting using antibodies recognizing E1 or E2. (b,c) Interaction between the E27 and E1/E2 glycoproteins was determined by co-immunoprecipitation. A plasmid expressing Myc-tagged E27 was co-expressed with either Flag-tagged E1 (b) or Flag-tagged E2 (c). Cell lysates were immunoprecipitated with an anti-Flag antibody and detected with an anti-Myc antibody or an anti-E1- or E2 antibody. The empty Flag vector was used as a negative control.
(§2) For cell lysate preparation, monolayer cells were lysed on ice with lysis buffer supplemented with protease inhibitor cocktail (Sigma or Pierce). After electrophoresis, the separated proteins were transferred onto a nitrocellulose membrane (Bio-Rad, Hercules, CA), blocked with 10% milk for 1 h, and incubated with the primary antibody overnight at 4 °C. The secondary antibody used was a 1:2000 dilution of HRP-linked anti-IgG. The ECL reagent (Amersham Biosciences, Piscataway, NJ) was used as the substrate for detection. […]

[1] = test system: HCV entry into Huh7.5.1 cells; assay: Time-of-addition assays; assay type: cell-based, Hepatitis C virus; conditions: 1 μM
Description: Next, to further corroborate that E27 targets HCV fusion, we sought to define the steps of HCV cell entry targeted by E27. […] In addition, we added E27 to Huh7.5.1 cells at different time intervals during the early phase of HCV infection. Three different time-points assays were conducted: cells were exposed to HCV for 1 h at 4 °C (attachment/binding period). Virus was removed, and the cells were washed with serum-free medium and incubated at 4 °C for another 1 h (postattachment/binding period). The cells were then washed and incubated for 1 h at 37 °C (endocytosis/fusion period). Finally, the cells were washed and incubated in 10% FBS-containing culture medium for 24 h, E27 was added at one of these steps. […] Moreover, we compared inhibitory kinetics between E27 and bafilomycin A1, a well-recognized inhibitor of fusion during virus infection.
Huh7.5.1 cells were seeded at 8 × 10^4 cells/well in 24-well plates. The next day, virus inoculum was added to the plates, which were then incubated at 4 °C for 1 h. Unbound virus was removed by 3 washes with cold medium. The cells were then shifted to 37 °C and incubated. The specified inhibitors were added at specific time points during infection and were either removed by washing after two hours or added back as described in the Figure legends. Firefly luciferase activity was quantified at 48 h post-infection. The experiments were performed in triplicate.

[2] = test system: HCV glycoprotein E1E2-mediated membrane fusion; assay: cell-based; assay type: cell-based, Hepatitis C virus (strain H77)
[3] = target: HCV glycoprotein E1E2-mediated membrane fusion (Hepatitis C virus genotype 1a, UniProt P27958); assay: cell-based; assay type: cell-based, Hepatitis C virus (strain H77); conditions: cell-cell fusion assay (Supplementary Fig. S3)
[4] = test system: HCV full-length genotype 1b replicon-containing cell line (2-3+); assay type: cell-based, Hepatitis C virus; conditions: replicon cells, 1 μM, 48 h
[5] = test system: VSV-G-pseudotyped lentivirus; assay type: cell-based
E1/E2 glycoproteins = assay: Co-immunoprecipitation of E27 with E1 or E2; assay type: binding, Hepatitis C virus; conditions: Myc-tagged E27 co-expressed with Flag-tagged E1 or E2, anti-Flag immunoprecipitation
Description: as §1, §2

JFH-1 HCVcc = assay: Virus pre-treatment (virocidal) assay; conditions: 1 μM, 2 h at 37 °C, unbound peptide removed by ultracentrifugation, then infection of Huh7.5.1 cells
Description: After removal of the unbound peptide, the viruses were resuspended and used to infect naïve Huh7.5.1 cells.

[6] = test system: CLDN1, OCLND, CD81 and SR-BI in Huh7 cells; assay: Co-receptor expression and localization (immunofluorescence, Western blotting); assay type: cell-based, human; conditions: 1 μM 24 h (staining), 0, 0.1, 1 or 5 μM (Western blotting)
Description: Figure 4 E27 affects neither HCV co-receptor localization nor expression levels. (a) DMSO and E27 (1 μM) were added to Huh7 cells and allowed to incubate for 24 h. CLDN1, OCLND, CD81 and SR-BI were stained with corresponding antibodies (green), and nuclei (blue) were stained with DAPI. (b) Huh7 cells were treated with 0, 0.1, 1 or 5 μM of E27, and the expression levels of CLDN1, OCLND, CD81 and SR-BI were analyzed by Western blotting. The expression of β-actin was also analyzed as a loading control.
Immunostaining of Huh7 cells was performed using antibodies against CLDN1, OClD, SR-BI or CD81 as previously descriped. Images were captured on a Leica SPW5 confocal microscope. Nucleus was stained with DAPI.
as §2, with “detection. For immunoprecipitation-coupled Western blotting, cleared cell lysates were immunoprecipitated with anti-FLAG M2 affinity resin (Sigma) and washed with lysis buffer.” for “detection.”

[7] = test system: HCVpp packaged with E1E2 from genotypes 1–6; assay: HCVpp entry assay; assay type: cell-based, Hepatitis C virus; conditions: HCVpp system and HCVcc system (Fig. 8A,B)

Chain of HCV glycoprotein E1E2-mediated membrane fusion (Hepatitis C virus genotype 1a, UniProt P27958) (P27958 384-746): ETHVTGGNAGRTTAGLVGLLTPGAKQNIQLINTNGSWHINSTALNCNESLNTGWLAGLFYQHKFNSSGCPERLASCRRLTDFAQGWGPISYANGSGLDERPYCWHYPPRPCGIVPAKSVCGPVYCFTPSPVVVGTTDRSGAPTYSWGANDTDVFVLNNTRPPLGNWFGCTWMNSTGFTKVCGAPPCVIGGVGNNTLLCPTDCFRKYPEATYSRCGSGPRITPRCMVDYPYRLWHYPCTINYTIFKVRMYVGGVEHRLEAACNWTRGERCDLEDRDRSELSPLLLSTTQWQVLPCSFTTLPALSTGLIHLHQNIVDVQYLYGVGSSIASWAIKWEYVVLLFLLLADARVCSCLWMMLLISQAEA
Chain of HCV glycoprotein E1E2-mediated membrane fusion (Hepatitis C virus genotype 1a, UniProt P27958) (P27958 192-383): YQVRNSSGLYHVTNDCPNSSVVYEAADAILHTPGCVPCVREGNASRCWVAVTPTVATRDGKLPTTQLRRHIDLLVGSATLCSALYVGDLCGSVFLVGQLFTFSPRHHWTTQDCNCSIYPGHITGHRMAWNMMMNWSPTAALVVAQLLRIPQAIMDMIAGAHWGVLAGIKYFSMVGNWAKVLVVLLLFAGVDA

Compound | CC50 (Huh7.5.1 cells) [µM] | effect on E1E2 heterodimers (E1E2 heterodimer) | inhibition when added during the attachment or binding step ([1]; 1 h at 4 °C) | inhibition when added together with the virus or within 2 h of infection ([1]; HCVpp, Huh7.5.1 cells, luciferase at 48 h) | inhibition when added prior to infection ([1]; added 2 or 4 h prior to HCVpp inoculation and removed, luciferase at 48 h) | inhibition of HCV infection when added during the late entry step ([1]; endocytosis/fusion period, 1 h at 37 °C) | susceptibility of E1-1 and E1-9 mutated E1E2 to E27 in the fusion assay [2] | suppression of wild-type E1E2-mediated fusion [3] | effect on intracellular HCV core protein level ([4]; Western blotting) | effect on HCV RNA replication ([4]; qRT-PCR) | inhibition of entry of VSV-G–pseudotyped lentivirus [5] | interaction with E1 or E2 (E1/E2 glycoproteins) | virocidal effect on HCV (JFH-1 HCVcc) | effect on subcellular distribution and expression of co-receptors [6] | antiviral activity compared to the parental peptide [7]
CC[C@H](C)[C@H](NC(=O)[C@H](CC(C)C)NC(=O)CNC(=O)[C@@H](NC(=O)[C@H](CO)NC(=O)[C@H](CC(C)C)NC(=O)[C@H](C)NC(=O)[C@@H]1CCCN1C(=O)[C@H](CC(C)C)NC(=O)[C@@H](NC(=O)[C@@H](NC(=O)[C@H](Cc1ccccc1)NC(=O)[C@H](CO)NC(=O)[C@H](CS)NC(=O)[C@@H]1CCCN1C(=O)[C@H](CC(C)C)NC(=O)[C@@H](NC(=O)[C@H](CCC(N)=O)NC(=O)[C@H](Cc1c[nH]c2ccccc12)NC(=O)[C@@H](N)CCC(N)=O)C(C)C)[C@@H](C)O)[C@@H](C)O)[C@@H](C)O)C(=O)N[C@@H](Cc1c[nH]cn1)C(=O)N[C@@H](CC(C)C)C(=O)N[C@@H](Cc1c[nH]cn1)C(=O)N[C@@H](CCC(N)=O)C(=O)N[C@@H](CC(N)=O)C(=O)N[C@H](C(=O)N[C@H](C(=O)N[C@@H](CC(=O)O)C(=O)N[C@H](C(=O)N[C@@H](CCC(N)=O)C(=O)N[C@@H](Cc1ccc(O)cc1)C(=O)N[C@@H](CC(C)C)C(=O)N[C@@H](Cc1ccc(O)cc1)C(=O)NCC(=O)N[C@H](C(=O)O)C(C)C)C(C)C)C(C)C)[C@@H](C)CC [E27] (H-QWQVLPCSFTTLPALSTGLIHLHQNIVDVQYLYGV-OH; N-terminus and C-terminus assumed) | 180.3 | significant decrease | no inhibition was observed | best inhibitory activity | no inhibition was observed | strong inhibition | markedly increased resistance | efficiently suppressed | no impact | no impact | did not inhibit | neither E1 nor E2 interact independently with E27 | no virocidal effect | no detectable effect | 
CSFTTLP ALSTGLIHLHQNIVDVQYLYGV [E27-2, E27 shortened by 6 aa from the N-terminus, residues 7-35] |  |  |  |  |  |  |  |  |  |  |  |  |  |  | slightly increased
